From patent US20240156093A1 (priority 2021, published 2024) come the findings set out here.

In brackets after ≈: the same amount, converted by molar mass.

A short description of data set [1]: physchem. The settings on record: 25 °C, water.
Data set [2] is described as follows: physchem.
Data set [3] concerns influenza virus (enveloped virus). Format: cell-based.
For data set [4], the system named is feline calicivirus (non-enveloped virus). Format: cell-based.

A word on the solubility: it is how much of the substance goes into solution per volume. Lower therefore signals little dissolved substance. `Nc1ccc(C(=O)O)cc1` [4-aminobenzoic acid] yielded a solubility in “physchem [1]” of 6000 µg/mL (≈ 43.8 mM).
Broadly, the pKa is the negative logarithm of the acid dissociation constant. A higher pKa goes with a group that holds its proton tightly. Consider `O=C(O)CCCCC(=O)O` [Adipic acid, adipic acid], for which the pKa in “physchem [2]” amounted to 4.34.
For the compound `CCCCCCCCCCCCc1ccc(S(=O)(=O)[O-])cc1.[Na+]` [Comparative example 2, sodium dodecylbenzene sulfonate], in data set [3], the “Influenza virus: Antiviral activity value” was 2.0 and the “Influenza virus: Virus infectivity titer common logarithmic value” is listed as 4.5 PFU/cm^2. In data set [4], the “Feline calicivirus: Antiviral activity value” was determined as 0.3 and the “Feline calicivirus: Virus infectivity titer common logarithmic value” is 6.2 PFU/cm^2.
As to `O=C(O)CCCCC(=O)O` [Comparative example 3, adipic acid], the “Influenza virus: Antiviral activity value” in data set [3] was determined as 1.7. Besides, in data set [4], the “Feline calicivirus: Antiviral activity value” turned out to be 0.5 and the “Feline calicivirus: Virus infectivity titer common logarithmic value” is recorded as 6 PFU/cm^2.
Turning to `O=C(O)/C=C/C(=O)O` [Fumaric acid, fumaric acid], the solubility in “physchem [1]” turned out to be 6300 µg/mL (≈ 54.3 mM). In the data set “physchem [2]”, the pKa stood at 3.02.
The like results for `CCCCCCCCCCCC(=O)O` [Lauric acid, lauric acid] were, in that order, 4.8 µg/mL (≈ 0.024 mM) and 4.92.
`CCCCCCCC/C=C\CCCCCCCC(=O)O` [Oleic acid, oleic acid] had a pKa in “physchem [2]” of 5.35.
In turn, `O=C(O)c1ccccc1C(=O)O` [Phthalic acid, phthalic acid] displayed a solubility in the data set “physchem [1]” of 7200 µg/mL (≈ 43.3 mM). This compound gave a pKa in “physchem [2]” of 2.94.
As for `O=C(O)c1ccccc1O` [Salicylic acid, salicylic acid], in the data set “physchem [1]”, the concentration in solution (solubility) came to 2000 µg/mL (≈ 14.5 mM).
Same read-out and setting: then `CCCCCC(=O)O` [caproic acid], with 11000 µg/mL (≈ 94.7 mM); and `CCCCCCC(=O)O` [enanthic acid], with 2400 µg/mL (≈ 18.4 mM); and `O=C(O)c1cccc(C(=O)O)c1` [isophthalic acid], with 130 µg/mL (≈ 0.783 mM).
Still for that read-out and setting: then `CCCCCCCCC(=O)O` [pelargonic acid], with 280 µg/mL (≈ 1.77 mM); and `O=C(O)c1ccc(C(=O)O)cc1` [terephthalic acid], with 17 µg/mL (≈ 0.102 mM).
